Test results reported in US20090176817A1, “Method of Treatment of Diarrhea-Predominant Irritable Bowel Syndrome in a Subject” (priority 2005, published 2009).
Where two headings read alike, the source gives them in different places.

Experiments:
clinical = conditions: human, in vivo, iv
Method: The pharmacokinetics of intravenously administered cilansetron have also been evaluated in several studies. In a randomized, double-blind, placebo controlled, rising dose, crossover study in 24 male subjects, aged 23-37 years, the single-dose pharmacokinetics of IV cilansetron were evaluated over a 4 mg to 16 mg dose range. Subjects received, at intervals of 1 week, single doses of 4, 8, and 16 mg IV cilansetron in ascending order and a randomized placebo. Infusion times ranged from 15-30 minutes. All doses were administered under fasted conditions.
In a randomized, double-blind, placebo controlled, rising dose, crossover study, 24 male subjects (aged 23-37 years) received single doses of 4, 8, and 16 mg IV cilansetron in ascending order and a randomized placebo, infused over 15-30 minutes. All doses were administered under fasted conditions. FIG. 14 and FIG. 15 present box plots of cilansetron AUC(0-inf) and dose-normalized AUC(0-inf) values (normalized to a 1 mg dose), respectively, and Table 2.7.2.3.13 presents descriptive statistics for the results of statistical pairwise comparisons of dose-normalized parameters between doses.

[1] = test system: diarrhea-predominant IBS subjects; format: in vivo, human; conditions: for Percentage of Subjects Who Worsened from Baseline: Daily Abdominal Pain / Percentage of Subjects Who Worsened from Baseline: Daily Urgency: S241.3.009, observed value
Text: The primary efficacy parameter was the overall response rate for IBS symptoms, based on the weekly question concerning adequate relief of IBS symptoms (abdominal pain/discomfort, abnormal bowel habits) over the 26 weeks period. A responder was a subject who responded “yes” at least 50% of the time during his/her treatment period, with minimum treatment duration of four weeks. The two main secondary efficacy parameters were overall responder rate based on the weekly question on adequate relief of abdominal pain/discomfort and abnormal bowel habits during the 26-week treatment period. The onset of action of cilansetron was also examined using daily diary data (stool frequency, and ratings of urgency and severity) during the initial 8 weeks of trial participation. An additional key secondary efficacy parameter was the number of months (one month equals four weeks) up to six months (24-weeks) that a subject was a responder for IBS symptoms, where a responder was defined as a subject who answered the weekly question with “yes” at least twice for that month. The responder rate for the weekly diary questions on adequate relief at each month and all months, the adequate relief rate, the number of subjects with adequate relief by week, daily diary questions, IBS-QOL scores, and the interruption of activities were also assessed. Safety was evaluated by physical examination, ECG, vital signs, laboratory evaluations, concomitant medications, and AEs.
Studies S24 1.3.OO6, S24 1.3.0 1 1, and S24 1.3.009 used the following efficacy measurements: • The subjects answered the following three questions with “yes” or “no” using a phone diary at the end of each week: • a) During the last week, did you experience adequate relief of your IBS symptoms, such as abdominal pain, abdominal discomfort, abnormal bowel habits? • b) During the last week, did you experience adequate relief of your abdominal pain and/or discomfort? • c) During the last week, did you experience adequate relief of your abnormal bowel habits? • The subjects rated the following symptoms using the phone diary at the end of each day: • abdominal pain/discomfort (five-point scale); • stool consistency (seven-point Bristol Stool Scale); • stool frequency (number of bowel movements each day); • urgency (five-point scale); • straining (yes or no); • feeling of incomplete defecation (yes or no); • bloating or feeling of abdominal distension (five-point scale). • In Studies S241 A006 and S241.3.009, subjects completed the IBS-QOL Survey at Baseline (Day 1) and at the end of treatment. In Study S24 1.3.0 1 1, subjects completed the IBS-QOL Survey at Baseline (Day 1), at the end of the three-month treatment period, and at the end of rerandomized treatment.
Other secondary efficacy parameters for all three studies included: • Responder rate for the weekly diary questions on adequate relief at each month, where a responder for a month (monthly responder) was defined as a subject who answered the weekly question with “yes” at least twice for that month. The responder rate was the percentage of responders within a treatment group. The all-month responder rate for the weekly diary questions on adequate relief was also evaluated, where an all-month responder was defined as a subject who answered the weekly question with “yes” at least twice for each month. […]

Method for cytochrome P450 enzymes: An in vitro study using human hepatic microsomes evaluated the effect of some enzyme inhibitors on the metabolism of cilansetron (100 μM).

Cc1nccn1C[C@H]1CCc2c(c3cccc4c3n2CCC4)C1=O [Cilansetron, (R)-(−)-4,5,6,8,9,10-hexahydro-10-[(2-methyl-1H-imidazol-1-yl)methyl]-11H-pyrido-[3,2,1-jk]-carbazol-11-one]
clearance (clinical): 550 to 800 mL/min
DN-AUC(0-inf) ratio 8 mg/4 mg (clinical; male): 121%
DN-AUC(0-inf) ratio 16 mg/4 mg (clinical; male): 124%
DN-AUC(0-inf) ratio 16 mg/8 mg (clinical; male): 102%
DN-AUC(0-last) ratio 8 mg/4 mg (clinical; male): 123%
DN-AUC(0-last) ratio 16 mg/4 mg (clinical; male): 126%
DN-AUC(0-last) ratio 16 mg/8 mg (clinical; male): 102%
Renal elimination (clinical; male): < 1 % of dose
clearance (clinical; male): 550 to 700 mL/min
half-life (clinical; male): 1.4 to 1.7 h
AUC(0-inf) (clinical; male, 4 mg): 103 ng·h/mL
AUC(0-t) (clinical; male, 4 mg): 100 ng·h/mL
CL renal (clinical; male, 4 mg): 2.95 mL/min
Vd (clinical; male, 4 mg): 99 L
clearance (clinical; male, 4 mg): 680 mL/min
half-life (clinical; male, 4 mg): 1.7 h
AUC(0-inf) (clinical; male, 8 mg): 254 ng·h/mL
AUC(0-t) (clinical; male, 8 mg): 251 ng·h/mL
CL renal (clinical; male, 8 mg): 2.64 mL/min
Vd (clinical; male, 8 mg): 78 L
clearance (clinical; male, 8 mg): 567 mL/min
half-life (clinical; male, 8 mg): 1.62 h
AUC(0-inf) (clinical; male, 16 mg): 525 ng·h/mL
AUC(0-t) (clinical; male, 16 mg): 518 ng·h/mL
CL renal (clinical; male, 16 mg): 2.65 mL/min
Vd (clinical; male, 16 mg): 68 L
clearance (clinical; male, 16 mg): 564 mL/min
half-life (clinical; male, 16 mg): 1.41 h
Mean number of stools per day at end of treatment ([1]; 2 mg TID): 1.96 stools per day
Stools per day ([1]; Day 2 of treatment): 2.97 stools per days
Median rate of pain-free days ([1]; Month 1 to Month 3): 0.13
Median rate of urgency-free days ([1]; Month 1 to Month 3): 0.05
Median rate of pain-free days ([1]; Month 4 to Month 6): 0.31
Median rate of urgency-free days ([1]; Month 4 to Month 6): 0.10
Percentage of Subjects Who Worsened from Baseline: Daily Abdominal Pain ([1]; Weeks 1-2, 2 mg TID): 13%
Percentage of Subjects Who Worsened from Baseline: Daily Urgency ([1]; Weeks 1-2, 2 mg TID): 7%
Percentage of Subjects Who Worsened from Baseline: Daily Abdominal Pain ([1]; Weeks 3-4, 2 mg TID): 8%
Percentage of Subjects Who Worsened from Baseline: Daily Urgency ([1]; Weeks 3-4, 2 mg TID): 5%
Percentage of Subjects Who Worsened from Baseline: Daily Abdominal Pain ([1]; Weeks 5-6, 2 mg TID): 8%
Percentage of Subjects Who Worsened from Baseline: Daily Urgency ([1]; Weeks 5-6, 2 mg TID): 5%
Percentage of Subjects Who Worsened from Baseline: Daily Abdominal Pain ([1]; Weeks 7-8, 2 mg TID): 7%
Percentage of Subjects Who Worsened from Baseline: Daily Urgency ([1]; Weeks 7-8, 2 mg TID): 4%
Percentage of Subjects Who Worsened from Baseline: Daily Abdominal Pain ([1]; Weeks 9-10, 2 mg TID): 4%
Percentage of Subjects Who Worsened from Baseline: Daily Urgency ([1]; Weeks 9-10, 2 mg TID): 6%
Percentage of Subjects Who Worsened from Baseline: Daily Abdominal Pain ([1]; Weeks 11-12, 2 mg TID): 7%
Percentage of Subjects Who Worsened from Baseline: Daily Urgency ([1]; Weeks 11-12, 2 mg TID): 4%
Percentage of Subjects Who Worsened from Baseline: Daily Abdominal Pain ([1]; Weeks 13-26, 2 mg TID): 6-8%
Percentage of Subjects Who Worsened from Baseline: Daily Urgency ([1]; Weeks 13-26, 2 mg TID): 5-8%
Subjects worsened from Baseline, daily abdominal pain ([1]; Weeks 1-2): 13%
Subjects worsened from Baseline, daily urgency ([1]; Weeks 1-2): 7%
Bloating or abdominal distention score, change from Baseline at end of treatment ([1]; in vivo): −0.75
Daily abdominal pain/discomfort score, change from Baseline at end of treatment ([1]; in vivo): −0.92
Daily stool consistency score, change from Baseline at end of treatment ([1]; in vivo): −1.40
Daily urgency score, change from Baseline at end of treatment ([1]; in vivo): −0.80
Feeling of incomplete evacuation, change from Baseline at end of treatment ([1]; in vivo): −0.25
Mean stool consistency score at end of treatment ([1]; in vivo): 4.27
Mean straining, change from Baseline at end of treatment ([1]; in vivo): 0.06
Pain-free days at end of treatment ([1]; in vivo): 0.29
Stools per day, change from Baseline at end of treatment ([1]; in vivo): −1.60
Urgency-free days at end of treatment ([1]; in vivo): 0.08
Median rate of pain-free days ([1]; six-month period): 0.19
Median rate of urgency-free days ([1]; six-month period): 0.07
Inhibition of any other cytochrome P450 enzyme activity (cytochrome P450 enzymes): no inhibition
